{"source": "patent US8796321B2", "about": "“Compounds, compositions and methods comprising oxadiazole derivatives” (PATH Drug Solutions, priority 2008, dated 2014)", "test_system": "cholera toxin (CTX) induced net fluid secretion in intestinal loops", "parameters": "species or system mice (CD1 strain)", "details": "mouse, in vivo", "data": [{"smiles": "O=C(NCc1ccc(Oc2ccccc2)cc1)c1nc(-c2cc(Br)c(O)c(Br)c2)no1", "note": "[compound 13, 3-(3,5-dibromo-4-hydroxyphenyl)-N-(4-phenoxybenzyl)-1,2,4-oxadiazole-5-carboxamide]", "values": [{"measurement": "closed loop % inhibition @ 10 μg", "result": 88.6, "unit": "%"}, {"measurement": "closed loop % inhibition @ 100 μg", "result": 94.7, "unit": "%"}]}, {"smiles": "O=C(NCc1cccc(OC(F)(F)F)c1)c1noc(-c2cc(Cl)c(O)c(Cl)c2O)n1", "note": "[compound 120, 5-(3,5-dichloro-2,4-dihydroxyphenyl)-N-(3-(trifluoromethoxy)benzyl)-1,2,4-oxadiazole-3-carboxamide]", "values": [{"measurement": "closed loop % inhibition @ 100 μg", "result": 62.3, "unit": "%"}]}, {"smiles": "O=C(NCc1cccc(OC(F)(F)F)c1)c1noc(-c2cc(Br)c(O)c(Br)c2)n1", "note": "[compound 65, 5-(3,5-dibromo-4-hydroxyphenyl)-N-(3-(trifluoromethoxy)benzyl)-1,2,4-oxadiazole-3-carboxamide]", "values": [{"measurement": "closed loop % inhibition @ 100 μg", "result": 94.6, "unit": "%"}]}, {"smiles": "O=C(NCc1cc(F)cc(F)c1)c1noc(-c2cc(Cl)c(O)c(Cl)c2)n1", "note": "[compound 112, 5-(3,5-dichloro-4-hydroxyphenyl)-N-(3,5-difluorobenzyl)-1,2,4-oxadiazole-3-carboxamide]", "values": [{"measurement": "closed loop % inhibition @ 100 μg", "result": 51, "unit": "%"}]}, {"smiles": "CC(C)(C)C(=O)CN(Cc1cccc(C(F)(F)F)c1)C(=O)c1nc(-c2cc(Br)c(O)c(Br)c2)no1", "note": "[compound 1, 3-(3,5-dibromo-4-hydroxyphenyl)-N-(3,3-dimethyl-2-oxobutyl)-N-(3-(trifluoromethyl)benzyl)-1,2,4-oxadiazole-5-carboxamide]", "values": [{"measurement": "closed loop % inhibition @ 10 μg", "result": 69.4, "unit": "%"}, {"measurement": "closed loop % inhibition @ 100 μg", "result": 87.1, "unit": "%"}]}]}
